Measured values from patent US8354398B2, “Substituted isoxazole compounds” (Bristol-Myers Squibb Company, priority 2009, dated 2013).
Where a name gives a salt, the structure may show the parent alone.

How the values were obtained:
S1P1 [1] = target: T1, S1P1 (Homo sapiens, UniProt P21453); assay: Method A: Receptor [35S] GTPγS Binding Assay, membranes from S1P1/CHO cells; assay type: biochemical; parameters: expressed in transfected cells; host or cells: S1P1/CHO cells; details: for EC50: Method A, S1P1/CHO cell membranes; for GTPγS S1P3/S1P1 (Method A): ratio of GTPγS S1P3 EC50 to GTPγS S1P1 EC50, Method A
Method: (§1) Compounds were loaded in a 384 Falcon v-bottom plate (0.5 μl/well in a 3-fold dilution). Membranes prepared from S1P1/CHO cells or EDG3-Ga15-bla HEK293T cells were added to the compound plate (40 μl/well, final protein […]) with MULTIDROP®. [^35S]GTP (1250 Ci/mmol, Perkin Elmer) was diluted in assay buffer: 20 mM HEPES, pH7.5, 10 mM MgCl2, 150 mM NaCl, 1 mM EGTA, 1 mM DTT, 10 μM GDP, 0.1% fatty acid free BSA, and 10 mg/ml Saponin to 0.4 nM. 40 μl of the [^35S] GTP solution was added to the compound plate with a final concentration of 0.2 nM. The reaction was kept at room temperature for 45 min. At the end of incubation, all the mixtures in the compound plate were transferred to a 384 well FB filter plates via GPCR robot system. The filter plate was washed with water 4 times by using the modified manifold Embla plate washer and dried at 60° C. for 45 min. 30 μl of MicroScint 20 scintillation fluid was added to each well for counting at Packard TOPCOUNT®. EC50 is defined as the agonist concentration that corresponds to 50% of the Ymax (maximal response) obtained for each individual compound tested.
(§2) Compounds of the present invention and Comparative Compound A were tested in the Receptor [^35S] GTPγS Binding Assays (Method A) and Receptor [35S] In some instances, the value is an average of multiple experiments where N is the number of experiments conducted that provided satisfactory dose response curves. When more than one batch of an example was tested, the value presented is from a batch which allowed a comparison of GTPγS S1P1 and GTPγS S1P3 in which the most number of experiments were performed. Preferably, the same batch was examined in Method A and Method B. Data was not averaged across different batches of an example compound.

S1P1 [2] = target: T1, S1P1; assay: S1P1 Binding Assay (33P-S1P ligand competition, membranes from CHO cells); parameters: expressed in transfected cells; host or cells: CHO cells; details: membranes of CHO cells expressing human S1P1; 0.03 nM 33P-S1P; 60 min room temperature
Method: Membranes were prepared from CHO cells expressing human S1P1. Cells were dissociated in buffer containing 20 mM HEPES, pH 7.5, 50 mM NaCl, 2 mM EDTA and Protease Inhibitor cocktail (Roche), and disrupted on ice using the Polytron homogenizer. The homogenate was centrifuged at 20,000 rpm (48,000 g) and the supernatant was discarded. The membrane pellets were resuspended in buffer containing 50 mM HEPES, pH 7.5, 100 mM NaCl, 1 mM MgCl2, 2 mM EDTA and stored in aliquots at −80° C. after protein concentration determination.
Membranes (2 μg/well) and 0.03 nM final concentration of ^33P-S1P ligand (1 mCi/ml, American Radiolabeled Chemicals) were added to the compound plates. Binding was performed for 60 min at room temperature, terminated by collecting the membranes onto GF/B filter plates, and radioactivity was measured by TOPCOUNT®. The competition data of the test compounds over a range of concentrations was plotted as percentage inhibition of radioligand specific binding. The IC50 is defined as the concentration of competing ligand needed to reduce specific binding by 50%.
Compounds of the present invention and Comparative Compound A were tested in the S1P1 binding assay described hereinabove and the results rounded to two digits, shown in Table A were obtained. In some instances, the value is an average of multiple experiments where N is the number of experiments conducted that provided satisfactory dose response curves. When more than one batch of an example was tested, the value presented is from the batch which allowed a comparison of GTPγS S1P1 and GTPγS S1P3 in Method A (Data shown in Table B). Data was not averaged across different batches of an example compound.

S1P1 [3] = target: T1, S1P1; assay: Method B: Receptor [35S] GTPγS SPA Binding Assay, membranes from S1P1 transfected CHO cells; assay type: biochemical; parameters: expressed in transfected cells; host or cells: S1P1/CHO cells; details: for EC50: Method B SPA, S1P1 transfected CHO cell membranes, NC = a satisfactory dose response curve was not obtained; for GTPγS S1P3/S1P1 (Method B): ratio of GTPγS S1P3 EC50 to GTPγS S1P1 EC50, Method B
Method: (§3) Membranes prepared from S1P1 or S1P3 transfected CHO cells (2 μg protein) were incubated in 96-well white plates (CORNING® 3693) with test compounds diluted in DMSO, in 50 μl of reaction mixture containing 7.5 μl WGA-PVT beads (20 mg/ml), and 5 μM GDP, 20 mM HEPES pH 7.4, 100 mM NaCl, 1 mM EDTA, 5 mM MgCl2, 10 μg/ml saponin, 0.1% BSA, and 1 μM leupeptin. The assay was initiated with the addition of 25 μl of 0.2 nM [^35S]-GTPγS (1250 Ci/mmol; NEN) in assay buffer. After 90 min incubation at room temperature, spin the plate at 1000 rpm for 5 min. The bound radionuclides were measured at TOPCOUNT®, expressed as % response relative to S1P (1 μM) activation. Data was analyzed using the four parameter logistic equation in Excel. The four parameters in the equation, Y=A+((B−A)/(1+((EC50/X)^D))), are described as following: A is the Y value (agonist activity) at the bottom plateau; B is the Y value at the top plateau; EC50 is the X value (agonist concentration) when the response is halfway between bottom and top; D is Hill coefficient. Curves were not generated for compounds having Ymax values were below 50%.
as §2

S1P3 [4] = target: T2, S1P3 (Homo sapiens, UniProt Q99500); assay: Method B: Receptor [35S] GTPγS SPA Binding Assay, membranes from S1P3 transfected CHO cells; assay type: biochemical; parameters: expressed in transfected cells; host or cells: CHO cells; details: S1P3 transfected CHO cell membranes, NC = a satisfactory dose response curve was not obtained
Method: as §3, §2
Target sequence in this assay (Q99500 whole entry, species assumed): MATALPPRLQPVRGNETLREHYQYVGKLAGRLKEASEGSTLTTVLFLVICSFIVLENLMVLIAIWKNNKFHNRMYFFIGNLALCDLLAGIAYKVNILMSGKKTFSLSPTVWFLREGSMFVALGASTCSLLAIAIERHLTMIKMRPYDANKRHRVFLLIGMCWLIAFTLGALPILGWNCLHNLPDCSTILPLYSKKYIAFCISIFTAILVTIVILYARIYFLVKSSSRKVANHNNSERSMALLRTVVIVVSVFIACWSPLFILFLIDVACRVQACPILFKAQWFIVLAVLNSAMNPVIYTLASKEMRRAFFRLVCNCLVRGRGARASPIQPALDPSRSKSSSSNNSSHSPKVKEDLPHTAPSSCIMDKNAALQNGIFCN

S1P3 [5] = target: T2, S1P3; assay: Method A: Receptor [35S] GTPγS Binding Assay, membranes from EDG3-Ga15-bla HEK293T cells; assay type: biochemical; parameters: expressed in transfected cells; host or cells: EDG3-Ga15-bla HEK293T cells; details: EDG3-Ga15-bla HEK293T cell membranes
Method: as §1, §2
Target sequence in this assay (Q99500 whole entry): as the sequence (Q99500 whole entry, species assumed) above

T1 sequence (P21453 whole entry): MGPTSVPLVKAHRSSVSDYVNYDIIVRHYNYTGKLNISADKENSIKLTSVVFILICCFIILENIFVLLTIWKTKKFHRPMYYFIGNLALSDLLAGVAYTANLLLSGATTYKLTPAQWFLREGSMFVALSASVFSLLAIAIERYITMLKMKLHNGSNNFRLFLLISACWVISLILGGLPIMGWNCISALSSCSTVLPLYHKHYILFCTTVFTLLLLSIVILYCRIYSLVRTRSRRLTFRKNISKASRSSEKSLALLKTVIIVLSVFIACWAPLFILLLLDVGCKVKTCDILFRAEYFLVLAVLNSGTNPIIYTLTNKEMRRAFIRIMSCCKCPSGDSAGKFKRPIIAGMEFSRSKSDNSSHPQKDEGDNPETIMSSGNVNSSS

| Compound | EC50 (S1P1 [1]) | GTPγS S1P3/S1P1 (Method A) (S1P1 [1]) | IC50 (S1P1 [2]) | EC50 (S1P1 [3]) | GTPγS S1P3/S1P1 (Method B) (S1P1 [3]) | EC50 (S1P3 [4]) | EC50 (S1P3 [5]) |
| --- | --- | --- | --- | --- | --- | --- | --- |
| O=C(O)C1CN(Cc2ccc(-c3noc(-c4cc(-c5ccccc5)c(C(F)(F)F)s4)n3)cc2)C1 [Comp. A, 1-(4-(5-(4-Phenyl-5-(trifluoromethyl)thiophen-2-yl)-1,2,4-oxadiazol-3-yl)benzyl)azetidine-3-carboxylic acid, reference compound] | 84 nM | 1.2 | 2.5 nM | 0.25 nM | 78 | 20 nM | 97 nM |
| CCCCc1c(-c2nc(-c3ccc(CN4CC(C(=O)O)C4)cc3)no2)noc1-c1ccccc1 [Example 3, 1-(4-(5-(4-Butyl-5-phenylisoxazol-3-yl)-1,2,4-oxadiazol-3-yl)benzyl)-azetidine-3-carboxylic acid] | 0.26 nM | 1,300 | 0.065 nM | 0.16 nM |  |  | 330 nM |
| CC(C)Cc1c(-c2nc(-c3ccc(CN4CC(C(=O)O)C4)cc3)no2)noc1-c1ccccc1 [Example 4, 1-(4-(5-(4-Isobutyl-5-phenylisoxazol-3-yl)-1,2,4-oxadiazol-3-yl)benzyl)-azetidine-3-carboxylic acid] | 0.7 nM | 670 | 0.17 nM | 0.58 nM |  |  | 470 nM |
| O=C(O)C1CN(Cc2ccc(-c3noc(-c4noc(-c5ccccc5)c4C4CC4)n3)cc2)C1 [Example 6, 1-(4-(5-(4-Cyclopropyl-5-phenylisoxazol-3-yl)-1,2,4-oxadiazol-3-yl)benzyl)-azetidine-3-carboxylic acid, 2,2,2-trifluoroacetic acid salt] | 5.6 nM | 75 | 0.043 nM | 0.22 nM |  |  | 420 nM |
| CC(C)(C)c1c(-c2nc(-c3ccc(CN4CC(C(=O)O)C4)cc3)no2)noc1-c1ccccc1 [Example 7, 1-(4-(5-(4-tert-Butyl-5-phenylisoxazol-3-yl)-1,2,4-oxadiazol-3-yl)benzyl)-azetidine-3-carboxylic acid, 2-2-2-trifluoroacetic acid salt] | 6.6 nM | 560 | 0.58 nM | 1.5 nM | 5,400 | 8100 nM | 3700 nM |
| CCC(F)(F)c1c(-c2nc(-c3ccc(CN4CC(C(=O)O)C4)cc3)no2)noc1-c1ccccc1 [Example 10, 1-(4-(5-(4-(1,1-Difluoropropyl)-5-phenylisoxazol-3-yl)-1,2,4-oxadiazol-3-yl)benzyl)azetidine-3-carboxylic acid, trifluoroacetic acid salt] | 0.84 nM | 230 | 0.055 nM | 0.055 nM |  |  | 190 nM |
| CCCc1c(-c2ccccc2)noc1-c1nc(-c2ccc(CN3CC(C(=O)O)C3)cc2)no1 [Example 11, 1-(4-(5-(3-Phenyl-4-propylisoxazol-5-yl)-1,2,4-oxadiazol-3-yl)benzyl)azetidine-3-carboxylic acid, 2,2,2-trifluoroacetic acid salt] | 0.47 nM |  | 0.13 nM | 0.017 nM | 2,900 | 50 nM |  |
| O=C(O)C1CN(Cc2ccc(-c3noc(-c4onc(-c5ccccc5)c4C(F)F)n3)cc2)C1 [Example 12, 1-(4-(5-(4-(Difluoromethyl)-3-phenylisoxazol-5-yl)-1,2,4-oxadiazol-3-yl)benzyl)azetidine-3-carboxylic acid, 2,2,2-trifluoroacetic acid salt] |  |  | 0.078 nM | 0.15 nM | 11,000 | 1600 nM | 3600 nM |
| CNC(=O)c1c(-c2ccccc2)noc1-c1nc(-c2ccc(CN3CC(C(=O)O)C3)cc2)no1 [Example 14, 1-(4-(5-(4-(Methylcarbamoyl)-3-phenylisoxazol-5-yl)-1,2,4-oxadiazol-3-yl)benzyl)azetidine-3-carboxylic acid, 2,2,2-trifluoroacetic acid salt] | 150 nM | 35 | 0.7 nM | 1.2 nM |  |  | 5200 nM |
| CCCc1c(-c2nc(-c3ccc(CN4CC(C(=O)O)C4)cc3)no2)noc1CC(C)C [Example 18, 1-(4-(5-(5-Isobutyl-4-propylisoxazol-3-yl)-1,2,4-oxadiazol-3-yl)benzyl)azetidine-3-carboxylic acid, TFA] | 1 nM |  | 0.14 nM | 0.015 nM | 1,400 | 21 nM |  |
| CCCc1onc(-c2nc(-c3ccc(CN4CC(C(=O)O)C4)cc3)no2)c1CC(C)C [Example 19, 1-(4-(5-(4-Isobutyl-5-propylisoxazol-3-yl)-1,2,4-oxadiazol-3-yl)benzyl)azetidine-3-carboxylic acid, TFA] | 3 nM | 270 | 0.3 nM | 0.72 nM |  |  | 810 nM |
| O=C(O)C1CN(Cc2ccc(-c3noc(-c4onc(-c5ccccc5)c4C(F)(F)F)n3)c(C(F)(F)F)c2)C1 [Example 24, 1-(4-(5-(3-phenyl-4-(trifluoromethyl)isoxazol-5-yl)-1,2,4-oxadiazol-3-yl)-3-(trifluoromethyl)benzyl)azetidine-3-carboxylic acid] | 6.4 nM | 4,900 | 1.56 nM |  |  |  | 31000 nM |
| O=C(O)C1CN(Cc2ccc(-c3noc(-c4noc(-c5ccccc5)c4-c4ccccc4)n3)c(C(F)(F)F)c2)C1 [Example 25, 1-(4-(5-(4,5-Diphenylisoxazol-3-yl)-1,2,4-oxadiazol-3-yl)-3-(trifluoromethyl)benzyl)azetidine-3-carboxylic acid, 2,2,2-trifluoroacetic acid salt] | 9.2 nM | 371 | 0.44 nM |  |  |  | 3400 nM |
